In ChEMBL document CHEMBL5465560, “Selectivity Literature for EUbOPEN Chemogenomic Library” (2024):

Key:
[1] = biological target: Tyrosine-protein kinase Srms (Homo sapiens) (UniProt Q9H3Y6); assay: Selectivity interaction (KinomeScan (DiscoverX)) EUB0001049a SRMS; settings: at 1 µM
[2] = biological target: T1, Mitogen-activated protein kinase 13 (Homo sapiens) (UniProt O15264); assay: Selectivity interaction (Kinase panel (Invitrogen)) EUB0000639a MAPK13; settings: at 200 nM
T1 sequence (whole entry): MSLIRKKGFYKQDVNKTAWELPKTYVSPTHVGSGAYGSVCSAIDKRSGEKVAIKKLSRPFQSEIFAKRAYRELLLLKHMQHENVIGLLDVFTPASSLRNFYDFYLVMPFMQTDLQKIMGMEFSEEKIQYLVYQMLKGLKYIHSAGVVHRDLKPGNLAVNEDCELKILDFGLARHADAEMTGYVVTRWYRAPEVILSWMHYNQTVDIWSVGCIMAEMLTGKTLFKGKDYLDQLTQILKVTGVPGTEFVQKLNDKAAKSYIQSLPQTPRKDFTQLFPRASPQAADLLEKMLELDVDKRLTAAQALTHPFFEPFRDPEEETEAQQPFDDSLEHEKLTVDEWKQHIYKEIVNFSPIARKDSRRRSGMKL

[3] = biological target: Protein kinase C eta type (Homo sapiens) (UniProt P24723); assay: Selectivity interaction (Kinase panel (Z-LYTE Assay)) EUB0001632a PRKCH; settings: at 10 µM
Protein kinase C eta type (Homo sapiens), sequence (P24723 whole entry): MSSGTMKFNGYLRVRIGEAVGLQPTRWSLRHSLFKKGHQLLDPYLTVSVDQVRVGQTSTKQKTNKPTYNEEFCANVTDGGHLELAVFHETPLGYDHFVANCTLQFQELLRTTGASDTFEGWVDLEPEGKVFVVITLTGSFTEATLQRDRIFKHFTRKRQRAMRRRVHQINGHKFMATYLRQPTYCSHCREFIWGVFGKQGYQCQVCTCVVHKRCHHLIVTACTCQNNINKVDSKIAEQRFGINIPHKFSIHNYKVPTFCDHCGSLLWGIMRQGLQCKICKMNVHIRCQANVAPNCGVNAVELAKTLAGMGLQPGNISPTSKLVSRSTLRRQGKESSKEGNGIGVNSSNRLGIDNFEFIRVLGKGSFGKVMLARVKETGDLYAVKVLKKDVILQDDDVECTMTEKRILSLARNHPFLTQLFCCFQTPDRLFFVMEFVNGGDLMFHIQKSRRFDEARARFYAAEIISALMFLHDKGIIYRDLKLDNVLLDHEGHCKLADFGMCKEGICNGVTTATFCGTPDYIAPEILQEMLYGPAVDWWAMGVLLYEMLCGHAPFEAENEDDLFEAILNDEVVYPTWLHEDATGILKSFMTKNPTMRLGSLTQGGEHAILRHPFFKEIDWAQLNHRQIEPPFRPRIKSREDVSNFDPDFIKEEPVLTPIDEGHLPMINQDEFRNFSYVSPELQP

[4] = biological target: Wee1-like protein kinase (Homo sapiens) (UniProt P30291); assay: Selectivity interaction (KinomeScan (DiscoverX)) EUB0000695a WEE1; settings: at 100 nM
Wee1-like protein kinase (Homo sapiens), sequence (P30291 whole entry, looked up): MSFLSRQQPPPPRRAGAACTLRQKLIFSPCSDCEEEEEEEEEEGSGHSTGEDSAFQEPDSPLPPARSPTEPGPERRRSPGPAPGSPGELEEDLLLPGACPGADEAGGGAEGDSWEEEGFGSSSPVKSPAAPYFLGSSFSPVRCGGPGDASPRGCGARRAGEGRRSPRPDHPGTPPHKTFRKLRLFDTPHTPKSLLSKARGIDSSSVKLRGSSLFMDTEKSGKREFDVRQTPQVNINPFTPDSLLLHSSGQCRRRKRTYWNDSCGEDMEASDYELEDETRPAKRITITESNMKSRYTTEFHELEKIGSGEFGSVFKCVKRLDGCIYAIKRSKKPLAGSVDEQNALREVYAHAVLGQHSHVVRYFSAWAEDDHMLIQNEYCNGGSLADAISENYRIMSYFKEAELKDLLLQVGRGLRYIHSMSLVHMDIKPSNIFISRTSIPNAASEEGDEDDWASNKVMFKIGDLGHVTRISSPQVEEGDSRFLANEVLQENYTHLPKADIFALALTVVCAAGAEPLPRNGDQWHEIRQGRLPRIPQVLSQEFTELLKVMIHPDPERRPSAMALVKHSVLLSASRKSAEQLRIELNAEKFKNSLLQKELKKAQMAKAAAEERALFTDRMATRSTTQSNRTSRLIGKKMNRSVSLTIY

[5] = biological target: NT-3 growth factor receptor (Homo sapiens, UniProt Q16288); assay: Selectivity interaction (KinomeScan (DiscoverX)) EUB0000595a NTRK3; settings: at 10 µM
NT-3 growth factor receptor, sequence (Q16288 32-839 limits assumed): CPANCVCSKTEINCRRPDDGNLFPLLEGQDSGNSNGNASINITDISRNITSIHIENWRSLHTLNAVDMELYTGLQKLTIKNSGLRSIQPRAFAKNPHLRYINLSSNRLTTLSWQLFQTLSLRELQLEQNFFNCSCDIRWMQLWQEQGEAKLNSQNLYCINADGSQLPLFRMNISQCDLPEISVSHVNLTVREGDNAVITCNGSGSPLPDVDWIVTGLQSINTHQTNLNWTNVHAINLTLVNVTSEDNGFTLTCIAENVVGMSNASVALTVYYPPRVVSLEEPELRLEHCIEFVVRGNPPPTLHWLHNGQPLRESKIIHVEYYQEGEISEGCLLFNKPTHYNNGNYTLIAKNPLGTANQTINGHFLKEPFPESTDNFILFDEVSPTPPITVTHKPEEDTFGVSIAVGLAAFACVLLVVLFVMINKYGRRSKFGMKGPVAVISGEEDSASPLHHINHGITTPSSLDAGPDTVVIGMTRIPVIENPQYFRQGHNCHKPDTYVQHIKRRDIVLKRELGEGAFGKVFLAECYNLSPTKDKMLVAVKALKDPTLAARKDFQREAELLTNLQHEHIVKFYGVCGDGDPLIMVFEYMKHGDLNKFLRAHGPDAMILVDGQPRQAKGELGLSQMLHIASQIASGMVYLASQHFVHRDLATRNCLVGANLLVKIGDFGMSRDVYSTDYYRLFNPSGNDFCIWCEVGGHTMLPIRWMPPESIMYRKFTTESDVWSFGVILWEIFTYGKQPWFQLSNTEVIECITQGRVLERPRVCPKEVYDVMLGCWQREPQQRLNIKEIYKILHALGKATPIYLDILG

[6] = biological target: Mitogen-activated protein kinase 4 (Homo sapiens) (UniProt P31152); assay: Selectivity interaction (KinomeScan (DiscoverX)) EUB0000092b MAPK4; settings: at 10 µM
[7] = biological target: G protein-coupled receptor kinase 4 (Homo sapiens) (UniProt P32298); assay: Selectivity interaction (KinomeScan (DiscoverX)) EUB0000045b GRK4
G protein-coupled receptor kinase 4 (Homo sapiens), sequence (P32298 whole entry, looked up): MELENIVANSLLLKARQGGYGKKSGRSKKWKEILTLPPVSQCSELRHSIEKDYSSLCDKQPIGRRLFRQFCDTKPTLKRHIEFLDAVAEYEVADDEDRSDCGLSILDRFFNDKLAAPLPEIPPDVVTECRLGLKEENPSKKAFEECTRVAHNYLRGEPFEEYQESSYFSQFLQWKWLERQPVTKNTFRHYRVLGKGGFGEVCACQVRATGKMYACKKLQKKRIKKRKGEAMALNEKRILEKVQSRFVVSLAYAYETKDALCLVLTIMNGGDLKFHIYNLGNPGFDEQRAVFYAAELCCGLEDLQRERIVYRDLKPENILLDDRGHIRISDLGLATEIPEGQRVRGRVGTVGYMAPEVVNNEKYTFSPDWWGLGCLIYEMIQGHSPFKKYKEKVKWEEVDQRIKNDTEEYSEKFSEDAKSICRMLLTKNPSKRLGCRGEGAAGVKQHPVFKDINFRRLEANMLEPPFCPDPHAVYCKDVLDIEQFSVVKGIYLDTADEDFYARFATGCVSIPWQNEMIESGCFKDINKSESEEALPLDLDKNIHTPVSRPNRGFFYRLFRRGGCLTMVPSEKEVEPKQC

[8] = biological target: Cyclin-dependent kinase 14 (Homo sapiens) (UniProt O94921); assay: Selectivity interaction (KinomeScan (DiscoverX)) EUB0000655a CDK14; settings: at 10 µM
Cyclin-dependent kinase 14 (Homo sapiens), sequence (O94921 whole entry): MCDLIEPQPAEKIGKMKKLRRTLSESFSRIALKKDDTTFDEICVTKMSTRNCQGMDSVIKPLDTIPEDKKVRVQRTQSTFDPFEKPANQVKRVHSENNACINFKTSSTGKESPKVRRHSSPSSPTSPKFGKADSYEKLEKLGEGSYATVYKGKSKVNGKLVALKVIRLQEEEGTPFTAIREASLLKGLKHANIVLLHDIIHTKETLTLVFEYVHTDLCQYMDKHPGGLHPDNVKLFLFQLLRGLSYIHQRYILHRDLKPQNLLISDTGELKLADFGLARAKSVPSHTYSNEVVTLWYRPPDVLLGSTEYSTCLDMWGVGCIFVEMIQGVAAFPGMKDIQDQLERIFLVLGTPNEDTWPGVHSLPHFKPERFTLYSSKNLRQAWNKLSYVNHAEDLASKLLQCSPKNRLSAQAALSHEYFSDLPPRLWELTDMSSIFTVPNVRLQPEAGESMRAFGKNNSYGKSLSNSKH

[9] = biological target: Receptor tyrosine-protein kinase erbB-3 (Homo sapiens) (UniProt P21860); assay: Selectivity interaction (KinomeScan (DiscoverX)) EUB0000655a ERBB3; settings: at 10 µM
Receptor tyrosine-protein kinase erbB-3 (Homo sapiens), sequence (P21860 whole entry, the tested form may be a part): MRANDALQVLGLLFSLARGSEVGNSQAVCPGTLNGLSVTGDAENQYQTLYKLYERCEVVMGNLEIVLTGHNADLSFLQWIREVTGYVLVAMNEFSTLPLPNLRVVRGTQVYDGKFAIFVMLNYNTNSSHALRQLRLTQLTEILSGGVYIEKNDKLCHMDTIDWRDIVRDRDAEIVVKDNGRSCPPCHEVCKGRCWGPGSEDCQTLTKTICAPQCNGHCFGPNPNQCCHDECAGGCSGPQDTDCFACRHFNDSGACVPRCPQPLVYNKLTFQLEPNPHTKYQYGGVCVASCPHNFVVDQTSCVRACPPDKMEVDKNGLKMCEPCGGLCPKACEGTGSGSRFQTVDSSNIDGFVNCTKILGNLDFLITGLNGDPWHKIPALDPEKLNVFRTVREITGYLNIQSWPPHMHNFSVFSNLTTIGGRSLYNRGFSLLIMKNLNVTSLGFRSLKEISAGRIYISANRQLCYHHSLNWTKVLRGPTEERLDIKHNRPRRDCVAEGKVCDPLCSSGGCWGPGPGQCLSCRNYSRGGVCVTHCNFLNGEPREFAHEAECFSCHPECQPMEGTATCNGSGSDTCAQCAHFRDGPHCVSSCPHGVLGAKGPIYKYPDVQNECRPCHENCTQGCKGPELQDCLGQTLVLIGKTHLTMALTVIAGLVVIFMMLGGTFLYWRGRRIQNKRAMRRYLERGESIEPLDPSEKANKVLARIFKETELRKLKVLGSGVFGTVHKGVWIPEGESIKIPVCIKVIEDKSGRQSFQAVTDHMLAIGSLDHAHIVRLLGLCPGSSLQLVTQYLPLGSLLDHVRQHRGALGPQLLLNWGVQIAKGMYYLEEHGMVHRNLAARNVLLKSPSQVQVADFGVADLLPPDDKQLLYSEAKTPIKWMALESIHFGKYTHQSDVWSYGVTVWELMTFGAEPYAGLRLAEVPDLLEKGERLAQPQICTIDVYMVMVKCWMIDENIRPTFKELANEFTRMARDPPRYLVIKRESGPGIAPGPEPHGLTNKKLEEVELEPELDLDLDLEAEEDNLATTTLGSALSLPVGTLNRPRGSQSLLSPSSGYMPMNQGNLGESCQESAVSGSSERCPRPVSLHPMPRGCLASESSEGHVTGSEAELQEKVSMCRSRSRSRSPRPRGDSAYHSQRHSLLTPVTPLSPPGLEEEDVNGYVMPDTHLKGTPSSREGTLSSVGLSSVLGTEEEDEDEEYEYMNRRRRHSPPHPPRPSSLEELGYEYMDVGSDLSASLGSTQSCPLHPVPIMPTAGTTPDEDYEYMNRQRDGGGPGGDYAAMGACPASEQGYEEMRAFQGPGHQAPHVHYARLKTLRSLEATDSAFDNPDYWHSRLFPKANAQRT

[10] = biological target: LIM domain kinase 2 (Homo sapiens) (UniProt P53671); assay: Selectivity interaction (KinomeScan (DiscoverX)) EUB0001619a LIMK2; settings: at 1 µM
[11] = biological target: T2, Serine/threonine-protein kinase TNNI3K (Homo sapiens) (UniProt Q59H18); assay: Selectivity interaction (KinomeScan (DiscoverX)) EUB0000618a TNNI3K; settings: at 10 µM
T2 sequence (whole entry): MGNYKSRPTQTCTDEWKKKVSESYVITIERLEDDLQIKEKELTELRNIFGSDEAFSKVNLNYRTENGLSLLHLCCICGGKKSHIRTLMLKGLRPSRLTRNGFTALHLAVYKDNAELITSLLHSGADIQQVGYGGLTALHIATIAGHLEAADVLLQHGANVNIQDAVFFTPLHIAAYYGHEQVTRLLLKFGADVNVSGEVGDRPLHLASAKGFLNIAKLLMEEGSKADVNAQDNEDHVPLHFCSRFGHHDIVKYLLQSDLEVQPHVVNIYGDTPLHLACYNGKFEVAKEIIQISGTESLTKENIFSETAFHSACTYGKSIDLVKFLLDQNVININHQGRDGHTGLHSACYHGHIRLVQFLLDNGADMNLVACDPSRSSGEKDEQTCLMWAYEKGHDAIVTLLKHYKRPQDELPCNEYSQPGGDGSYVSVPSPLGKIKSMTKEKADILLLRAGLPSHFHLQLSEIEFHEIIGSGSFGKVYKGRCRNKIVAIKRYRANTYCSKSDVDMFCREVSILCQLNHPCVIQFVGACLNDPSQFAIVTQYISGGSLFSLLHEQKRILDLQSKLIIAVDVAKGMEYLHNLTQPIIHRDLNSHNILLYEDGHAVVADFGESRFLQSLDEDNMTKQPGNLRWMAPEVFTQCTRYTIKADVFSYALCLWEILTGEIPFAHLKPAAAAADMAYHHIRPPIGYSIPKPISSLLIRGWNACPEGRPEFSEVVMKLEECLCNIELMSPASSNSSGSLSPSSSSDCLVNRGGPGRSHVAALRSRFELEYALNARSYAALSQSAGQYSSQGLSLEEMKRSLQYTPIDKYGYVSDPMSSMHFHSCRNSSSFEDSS

[12] = biological target: T3, Serine/threonine-protein kinase 17A (Homo sapiens) (UniProt Q9UEE5); assay: Selectivity interaction (Kinase panel (DSF assay)) EUB0001558a STK17A
T3 sequence (whole entry): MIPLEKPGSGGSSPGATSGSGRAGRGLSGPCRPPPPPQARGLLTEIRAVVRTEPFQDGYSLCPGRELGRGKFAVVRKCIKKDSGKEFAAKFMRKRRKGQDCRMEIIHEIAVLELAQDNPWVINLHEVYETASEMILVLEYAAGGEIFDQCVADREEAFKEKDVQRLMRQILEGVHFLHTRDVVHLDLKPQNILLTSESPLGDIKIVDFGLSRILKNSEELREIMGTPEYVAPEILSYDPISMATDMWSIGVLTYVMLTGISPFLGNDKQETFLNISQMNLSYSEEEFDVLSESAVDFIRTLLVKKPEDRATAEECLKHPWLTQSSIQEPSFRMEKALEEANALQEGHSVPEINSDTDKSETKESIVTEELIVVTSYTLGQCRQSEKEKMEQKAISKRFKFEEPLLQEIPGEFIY

Tyrosine-protein kinase Srms (Homo sapiens), sequence (Q9H3Y6 whole entry): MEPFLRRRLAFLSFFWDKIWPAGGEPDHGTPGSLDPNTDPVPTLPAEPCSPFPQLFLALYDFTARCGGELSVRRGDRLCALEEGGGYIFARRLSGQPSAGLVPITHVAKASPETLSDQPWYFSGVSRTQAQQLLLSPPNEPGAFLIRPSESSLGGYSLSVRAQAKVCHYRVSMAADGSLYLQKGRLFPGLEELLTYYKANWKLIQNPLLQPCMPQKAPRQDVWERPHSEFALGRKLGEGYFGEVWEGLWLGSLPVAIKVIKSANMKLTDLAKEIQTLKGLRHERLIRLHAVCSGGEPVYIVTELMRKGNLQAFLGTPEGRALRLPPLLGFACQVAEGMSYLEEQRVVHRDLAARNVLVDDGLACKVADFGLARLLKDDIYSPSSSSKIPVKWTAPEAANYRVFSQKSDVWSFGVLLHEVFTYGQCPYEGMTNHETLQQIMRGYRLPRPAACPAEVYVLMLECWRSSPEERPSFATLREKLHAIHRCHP

COc1cc(Nc2nc(C)cc(-c3cnn4nc(OC)ccc34)n2)cc(C(F)(F)F)c1
% of control [1]: 66%

CC[C@@H]1[C@H](F)C(=O)N[C@@H]1COc1nccc2cc(C(N)=O)c(OC)cc12 [ZIMLOVISERTIB]
% of inhibition [2]: 6.06%

Cn1cc(-n2cnc3c(NCc4nc5cc(Cl)c(Cl)cc5[nH]4)nc(N4CCOCC4)nc32)cn1
% of control [3]: 19.3%

Cc1cc(F)c(C(=O)Nc2cccc(-c3nncn3C(C)C)n2)cc1-n1cnc(C2CC2)c1
% of control [4]: 100%

COCC(=O)NC/C=C/c1ccc2ncnc(Nc3ccc(Oc4ccc(C)nc4)c(C)c3)c2c1 [CP-724714]
% of control [5]: 93%

CCC(=O)N1CCN(c2ccc(-n3c(=O)ccc4cnc5ccc(-c6cnc7ccccc7c6)cc5c43)cc2C(F)(F)F)CC1
% of control [6]: 80%

C=CC(=O)Nc1cc(-n2c(=O)ccc3cnc4ccc(-c5ccc(NS(C)(=O)=O)cc5)cc4c32)ccc1C
% of control ([7]; at 1 µM): 100%
% of control ([7]; at 10 µM): 66%

CN(C)CCOc1ccc(-c2nc(-c3ccncc3)c(-c3ccc4c(c3)CC/C4=N\O)[nH]2)cc1
% of control [8]: 100%
% of control [9]: 0.7%

N#Cc1cccc(-c2c[nH]c3ncnc(N4CCOCC4)c23)c1
% of control [10]: 96%

O[C@H]1CC[C@H](Nc2ncc3nc(Nc4c(F)cc(F)cc4F)n([C@H]4CCOC4)c3n2)CC1
% of control [11]: 100%

CC(C)(O)[C@H](F)CN1Cc2cc(NC(=O)c3cnn4cccnc34)c(N3CCOCC3)cc2C1=O
dTM [12]: 0.9 K
